From paper PMC11432330, “Novel Drug-like HsrA Inhibitors Exhibit Potent Narrow-Spectrum Antimicrobial Activities against Helicobacter pylori” (International Journal of Molecular Sciences, 2024)
≈ marks a conversion by molar mass, not a printed value.

Columns and labels:
[1] = molecular target: HsrA (Helicobacter pylori, UniProt O25684); assay: Isothermal titration calorimetry (ITC) with HsrA; type: binding; conditions: ITC, 25 °C; for n (stoichiometry) / Kd: pH 8; for Kd: relative error 15%, read-out: Kd; for ΔG: absolute error 0.1; for ΔH: absolute error 0.4
Description: Molecular interactions of the selected ligands with proteins HsrA or CosR were studied by isothermal titration calorimetry (ITC), as previously described. Titrations were assessed in a high-sensitivity MicroCal Auto-iTC200 calorimeter (Malvern Panalytical, Malvern, UK). Experiments were carried out at 25 °C in freshly prepared buffer containing 50 mM Tris-HCl [pH 8], 150 mM NaCl, 10% glycerol, and 1% DMSO. A 20 µM solution of protein was located in the calorimetric cell. Then, a sequence of 19 injections of 2 µL volume each with a 200 µM solution of the corresponding ligand was programmed with a time spacing of 150 s, a stirring speed of 750 rpm, and a reference power of 10 µcal/s in the sample cell. Thermodynamic properties such as binding stoichiometry, dissociation constants, and binding enthalpies were calculated by nonlinear least-squares regression data analysis using Origin 7.0 software.

[2] = test system: H. pylori; assay: MIC across the four H. pylori strains tested (text summaries); type: cell-based, Helicobacter pylori; conditions: Helicobacter pylori; four strains incl. CLR-, MTZ- and LVX-resistant; read-out: MIC against all H. pylori strains tested
Description: The antimicrobial activity of the HsrA inhibitors was evaluated by the determination of the minimal inhibitory concentration (MIC) against four different strains of H. pylori: ATCC 700392 (aka 26695), ATCC 43504 (MTZ-resistant reference strain), ATCC 700684 (CLR-resistant reference strain), and Donostia 2 (LVX-resistant clinical isolate). The MICs were determined by the broth microdilution method, as previously described. Briefly, H. pylori strains were grown in blood agar at 37 °C for 72 h under microaerobic conditions. Fresh inoculums adjusted at OD600 = 0.01 [~10^6 colony forming units (CFU) per mL] in BHI broth supplemented with 4% fetal bovine serum (BHI + FBS) were prepared and immediately exposed to final concentrations between 64 and 0.031 mg/L of each compound of interest. The compound solvent (DMSO) as well as conventional antibiotics (MTZ, CLR, LVX) were included as controls. […] Each experiment was performed twice in triplicate. The MIC and MBC values of the selected compounds against C. jejuni ATCC 33560 were determined by using the same method and culture conditions described for the H. pylori strains.

[3] = test system: H. pylori ATCC 700392; assay: Checkerboard assay with first-line antibiotics; type: cell-based, Helicobacter pylori
Description: Potential synergisms between the selected HsrA inhibitors and first-line antibiotics were evaluated by using checkerboard assays, as previous described. Briefly, the antimicrobials to be tested were twofold serially diluted in BHI + FBS using independent sterile microtiter plates. Then, concentration gradients from two antimicrobials were aseptically mixed at equal volumes in a new microtiter plate, resulting in a matrix of 77 unique combinations of both compounds. Next, freshly prepared inoculum of H. pylori ATCC 700392 adjusted at 2 × 10^6 CFU/mL in BHI+ FBS were added to all wells, and plates were incubated for 72 h at 37 °C under microaerophilic conditions. […] The fractional inhibitory concentration index (FICI) for each antimicrobial combination was calculated as previously described. Values of FICI ≤ 0.5, 0.5 < FICI ≤ 1, 1 < FICI ≤ 4, and FICI > 4 were considered as indicative of synergistic, additive, neutral, or antagonist interactions, respectively.

[4] = test system: E. coli ATCC 25922; assay: MIC/MBC according to EUCAST guidelines; type: cell-based; conditions: Escherichia coli, ATCC25922
Description: (§1) The antimicrobial activities of the selected compounds against several Gram-negative and Gran-positive representative species of normal human microbiota were determined according to the EUCAST guidelines. Briefly, standardized inoculums (0.5 McFarland) were freshly prepared from overnight Mueller–Hinton agar plates of reference strains E. coli ATCC 25922, K. pneumonia ATCC 700603, E. faecalis ATCC 29212, S. aureus ATCC 29213, S. epidermidis ATCC 12228, and S. agalactiae ATCC 12386. Next, bacterial suspensions adjusted to 5 × 10^5 CFU/mL in Mueller–Hinton broth were exposed to a range of concentrations from 64 to 0.031 mg/L of the selected compounds. DMSO and conventional antibiotics LVX and AMP were included as controls. […] Experiments were performed twice in triplicate.

[5] = test system: S. epidermidis ATCC 12228; assay: MIC/MBC according to EUCAST guidelines; type: cell-based; conditions: Staphylococcus epidermidis, ATCC12228
Description: as §1

[6] = test system: E. faecalis ATCC 29212; assay: MIC/MBC according to EUCAST guidelines; type: cell-based; conditions: Enterococcus faecalis, ATCC29212
Description: as §1

[7] = test system: S. aureus ATCC 29213; assay: MIC/MBC according to EUCAST guidelines; type: cell-based; conditions: Staphylococcus aureus, ATCC29213
Description: as §1

[8] = test system: S. agalactiae ATCC 12386; assay: MIC/MBC according to EUCAST guidelines; type: cell-based; conditions: Streptococcus agalactiae, ATCC12386
Description: as §1

[9] = test system: HeLa cells; assay: Cytotoxicity, PrestoBlue cell viability assay; type: cell-based; conditions: for TI (CC50/MIC), therapeutic index: CC50 on HeLa / higher MIC observed against H. pylori
Description: (§2) The in vitro toxicity of the selected HsrA inhibitors was determined on HeLa cells by the PrestoBlue^TM assay, as previously described. Briefly, cells were cultured at 37 °C with 5% CO2 in Dulbecco’s modified Eagle’s medium containing 10% fetal bovine serum, 1% L-GlutaMAX^TM solution (Thermo Fisher Scientific), and 1% penicillin/streptomycin. When 80% confluence was achieved, cells were detached, counted, seeded in 96-well microplates at a density of 10,000 cells per well, and allowed to adhere for 24 h. Next, the mammalian cells were exposed to selected compounds at a range of 0.125 to 128 mg/L. After 24 h of exposure, the cell viability was measured with the PrestoBlue^TM cell viability reagent (Thermo Fisher Scientific), according to the manufacturer’s instructions. Experiments were performed twice in triplicate. The 50% cytotoxic concentration (CC50) of each compound was calculated by regression analysis using Microsoft Excel. Therapeutic index (TI) values were calculated as the ratio of the CC50 to the higher MIC observed for each compound [111].

[10] = Cytotoxicity, PrestoBlue cell viability assay; type: cell-based; conditions: human; HeLa cells, 24 h exposure; read-out: CC50 (50% cytotoxic concentration)
Description: as §2

[11] = in combination with CLR (clarithromycin)
[12] = in combination with LVX (levofloxacin)
[13] = in combination with MTZ (metronidazole)

Sequence of HsrA (O25684 entry or part of it): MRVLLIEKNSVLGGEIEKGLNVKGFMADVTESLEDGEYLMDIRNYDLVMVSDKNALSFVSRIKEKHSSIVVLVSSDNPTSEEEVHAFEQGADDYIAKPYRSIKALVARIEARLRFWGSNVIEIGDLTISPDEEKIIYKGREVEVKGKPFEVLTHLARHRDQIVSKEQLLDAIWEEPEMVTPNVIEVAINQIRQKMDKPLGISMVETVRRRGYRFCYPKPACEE

Row | SMILES | n (stoichiometry) [1] | Kd [1] [µM] | ΔG [1] | ΔH [1] | MIC [2] [µg/mL] | FICI [3, 11] | FICantibiotic [3, 11] | FICinhibitor [3, 11] | FICI [3, 12] | FICantibiotic [3, 12] | FICinhibitor [3, 12] | FICI [3, 13] | FICantibiotic [3, 13] | FICinhibitor [3, 13] | MBC [4] [µg/mL] | MIC [4] [µg/mL] | MBC [5] [µg/mL] | MIC [5] [µg/mL] | MBC [6] [µg/mL] | MIC [6] [µg/mL] | other results
1 | OC1(C(F)(F)F)CC(c2ccc3c(c2)Nc2ccccc2S3)=NN1 (stereo not shown) [Ligand VIII] | 0.9 | 10 | –6.8 kcal/mol | 0.8 kcal/mol | 0.031 to 4 (≈ 0.0882 to 11.4 µM) | 0.53 | 0.5 | 0.03 | 2 | 1 | 1 | 0.625 | 0.5 | 0.125 | > 64 | > 64 | 4 (≈ 11.4 µM) | 4 (≈ 11.4 µM) | 64 (≈ 182 µM) | 64 (≈ 182 µM) | Interaction [3, 12]: Neutral (no interaction or neutral (FICI > 1 to ≤4)); MBC [7]: 32 µg/mL (≈ 91.1 µM); MIC [7]: 16 µg/mL (≈ 45.5 µM); MBC [8]: 32 µg/mL (≈ 91.1 µM); MIC [8]: 16 µg/mL (≈ 45.5 µM); TI (CC50/MIC), therapeutic index [9]: 3.2; Cell death ([9]; HeLa cells, 8 mg/L, 24 h): 68%; CC50 at 24 h [10]: 6.5 µg/mL (≈ 18.5 µM)
2 | N#C/C(=C\C=C\c1ccccc1)c1nc2ccccc2[nH]1 [Ligand XII] | 1.0 | 43 | –6.0 kcal/mol | 0.8 kcal/mol | 0.031 to 4 (≈ 0.114 to 14.7 µM) | 0.75 | 0.25 | 0.5 | 1 | 0.5 | 0.5 | 0.5 | 0.25 | 0.25 | > 64 | > 64 | > 64 | > 64 | > 64 | > 64 | Interaction [3, 11]: Additive (additive (FICI > 0.5 to ≤1)); MBC [7]: > 64 µg/mL; MIC [7]: > 64 µg/mL; MBC [8]: > 64 µg/mL; MIC [8]: > 64 µg/mL; TI (CC50/MIC), therapeutic index [9]: 6.7; CC50 at 24 h [10]: 13.4 µg/mL (≈ 49.4 µM)
3 | N#Cc1cnn(-c2ccc(C(F)(F)F)cc2[N+](=O)[O-])c1N [Ligand I] | 1.0 | 13 | –6.7 kcal/mol | –1.2 kcal/mol | 0.031 to 4 (≈ 0.104 to 13.5 µM) | 2 | 1 | 1 | 2 | 1 | 1 | 0.625 | 0.125 | 0.5 | > 64 | > 64 | > 64 | > 64 | > 64 | > 64 | Interaction [3, 11]: Neutral (no interaction or neutral (FICI > 1 to ≤4)); Interaction [3, 12]: Neutral (no interaction or neutral (FICI > 1 to ≤4)); Interaction [3, 13]: Additive (additive (FICI > 0.5 to ≤1)); MBC [7]: > 64 µg/mL; MIC [7]: > 64 µg/mL; MBC [8]: 64 µg/mL (≈ 215 µM); MIC [8]: 32 µg/mL (≈ 108 µM); Cytotoxicity at 8 mg/L ([9]; HeLa cells, 8 mg/L, 24 h): completely safe; CC50 at 24 h [10]: 119 µg/mL (≈ 401 µM)
4 | CSc1cccc(Nc2nc(C(C)(C)C)cs2)c1 [Ligand XI] | 1.1 | 49 | –5.9 kcal/mol | –3.1 kcal/mol | 0.031 to 4 (≈ 0.111 to 14.4 µM) | 0.75 | 0.25 | 0.5 | 2 | 1 | 1 | 0.563 | 0.5 | 0.063 | > 64 | > 64 | 64 (≈ 230 µM) | 16 (≈ 57.5 µM) | 64 (≈ 230 µM) | 64 (≈ 230 µM) | Interaction [3, 12]: Neutral (no interaction or neutral (FICI > 1 to ≤4)); MBC [7]: 32 µg/mL (≈ 115 µM); MIC [7]: 16 µg/mL (≈ 57.5 µM); MBC [8]: 8 µg/mL (≈ 28.7 µM); MIC [8]: 8 µg/mL (≈ 28.7 µM); TI (CC50/MIC), therapeutic index [9]: 5.4; Cytotoxicity at 8 mg/L ([9]; HeLa cells, 8 mg/L, 24 h): completely safe; CC50 at 24 h [10]: 21.8 µg/mL (≈ 78.3 µM)
